Experimental data taken from ChEMBL document CHEMBL6083289, “Deciphering the Therapeutic Potential of Novel Pentyloxyamide-Based Class I, IIb HDAC Inhibitors against Therapy-Resistant Leukemia” (J Med Chem, 2024).

Legend:
[1] = target: Histone deacetylase 4 (Homo sapiens, UniProt P56524)
Description: Inhibition of human recombinant HDAC4 using Boc-Lys(trifluoroacetyl)-AMC) as fluorogenic substrate incubated for 90 mins by fluorescence based analysis

[2] = target: T1, Histone deacetylase 8 (Homo sapiens, UniProt Q9BY41)
T1 sequence (Q9BY41 whole entry): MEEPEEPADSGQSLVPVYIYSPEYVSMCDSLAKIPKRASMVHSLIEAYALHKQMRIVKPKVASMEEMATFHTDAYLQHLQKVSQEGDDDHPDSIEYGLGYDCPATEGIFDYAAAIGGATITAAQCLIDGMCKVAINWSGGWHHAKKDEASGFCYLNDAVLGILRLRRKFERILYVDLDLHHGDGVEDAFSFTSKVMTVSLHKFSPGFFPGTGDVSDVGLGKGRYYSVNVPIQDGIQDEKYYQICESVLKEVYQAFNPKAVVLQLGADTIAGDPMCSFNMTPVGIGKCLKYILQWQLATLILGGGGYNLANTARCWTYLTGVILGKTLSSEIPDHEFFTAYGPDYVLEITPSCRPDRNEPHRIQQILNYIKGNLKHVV
Description: Inhibition of human recombinant HDAC8 using RHKAcKAc as fluorogenic substrate incubated for 90 mins by fluorescence based analysis

[3] = target: T2, Protein deacetylase HDAC6 (Homo sapiens, UniProt Q9UBN7); assay: Inhibition of human recombinant HDAC6 using RHKKAc as fluorogenic substrate incubated for 90 mins by fluorescence based analysis
T2 sequence (Q9UBN7 whole entry): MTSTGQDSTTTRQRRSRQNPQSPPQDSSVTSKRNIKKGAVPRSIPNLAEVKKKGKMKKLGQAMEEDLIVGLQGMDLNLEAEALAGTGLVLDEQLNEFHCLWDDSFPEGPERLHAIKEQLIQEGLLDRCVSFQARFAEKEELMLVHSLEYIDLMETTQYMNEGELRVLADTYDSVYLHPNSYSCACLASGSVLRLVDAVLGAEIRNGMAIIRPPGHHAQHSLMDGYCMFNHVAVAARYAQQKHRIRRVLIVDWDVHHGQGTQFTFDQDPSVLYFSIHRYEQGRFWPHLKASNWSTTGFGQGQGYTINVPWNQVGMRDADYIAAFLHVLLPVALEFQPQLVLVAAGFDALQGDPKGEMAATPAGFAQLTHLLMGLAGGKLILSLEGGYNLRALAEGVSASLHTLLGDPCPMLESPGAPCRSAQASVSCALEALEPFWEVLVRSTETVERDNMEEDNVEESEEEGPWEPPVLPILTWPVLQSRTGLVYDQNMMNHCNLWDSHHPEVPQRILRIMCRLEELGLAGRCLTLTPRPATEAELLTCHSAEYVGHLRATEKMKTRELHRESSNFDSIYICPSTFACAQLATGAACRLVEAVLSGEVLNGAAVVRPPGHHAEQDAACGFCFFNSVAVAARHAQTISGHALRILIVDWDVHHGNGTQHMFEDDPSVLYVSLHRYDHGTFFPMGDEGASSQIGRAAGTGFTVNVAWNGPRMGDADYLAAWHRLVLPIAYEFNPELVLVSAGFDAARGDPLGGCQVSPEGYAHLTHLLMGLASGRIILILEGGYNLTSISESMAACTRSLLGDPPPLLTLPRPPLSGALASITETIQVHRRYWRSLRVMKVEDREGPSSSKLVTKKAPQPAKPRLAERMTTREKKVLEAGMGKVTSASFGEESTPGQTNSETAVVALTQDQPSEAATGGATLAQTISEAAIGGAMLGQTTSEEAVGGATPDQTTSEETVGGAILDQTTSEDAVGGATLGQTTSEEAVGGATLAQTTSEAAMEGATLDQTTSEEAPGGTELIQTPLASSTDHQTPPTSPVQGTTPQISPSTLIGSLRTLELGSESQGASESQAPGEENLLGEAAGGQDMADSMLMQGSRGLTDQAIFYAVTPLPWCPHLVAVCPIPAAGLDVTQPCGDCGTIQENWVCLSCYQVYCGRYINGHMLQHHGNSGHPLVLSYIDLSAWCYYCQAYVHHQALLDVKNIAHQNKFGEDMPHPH

[4] = target: T3, Histone deacetylase 11 (Homo sapiens, UniProt Q96DB2)
T3 sequence (Q96DB2 whole entry): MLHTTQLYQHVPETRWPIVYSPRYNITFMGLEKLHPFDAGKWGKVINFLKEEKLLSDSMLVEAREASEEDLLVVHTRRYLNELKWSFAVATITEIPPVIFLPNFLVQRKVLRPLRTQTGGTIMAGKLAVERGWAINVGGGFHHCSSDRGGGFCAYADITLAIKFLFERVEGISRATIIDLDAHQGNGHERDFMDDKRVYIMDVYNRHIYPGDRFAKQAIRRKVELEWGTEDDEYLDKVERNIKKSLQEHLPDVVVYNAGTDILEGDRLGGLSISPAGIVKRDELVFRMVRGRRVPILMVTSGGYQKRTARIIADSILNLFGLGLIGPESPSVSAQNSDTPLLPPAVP

[5] = target: Histone deacetylase 3/Nuclear receptor corepressor 2 (HDAC3/NCoR2) (Homo sapiens, UniProt O15379); assay: Inhibition of human recombinant Human HDAC3/NCOR2 using RHKKAc as fluorogenic substrate incubated for 90 mins by fluorescence based analysis; format: protein-complex assay
Histone deacetylase 3/Nuclear receptor corepressor 2 (HDAC3/NCoR2), sequence (O15379 whole entry): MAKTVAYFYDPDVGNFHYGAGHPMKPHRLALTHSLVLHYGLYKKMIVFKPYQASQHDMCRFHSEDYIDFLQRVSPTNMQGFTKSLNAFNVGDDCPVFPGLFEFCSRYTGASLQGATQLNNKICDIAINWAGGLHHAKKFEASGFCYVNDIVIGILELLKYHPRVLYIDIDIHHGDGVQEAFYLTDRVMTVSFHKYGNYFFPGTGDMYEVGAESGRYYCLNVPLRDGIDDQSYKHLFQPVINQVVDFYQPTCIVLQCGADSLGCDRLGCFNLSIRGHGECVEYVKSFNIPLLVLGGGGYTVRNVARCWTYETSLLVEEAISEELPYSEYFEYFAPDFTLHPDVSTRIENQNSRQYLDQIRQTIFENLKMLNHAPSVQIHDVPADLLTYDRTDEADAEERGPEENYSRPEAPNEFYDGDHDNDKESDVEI
Histone deacetylase 3/Nuclear receptor corepressor 2 (HDAC3/NCoR2), sequence (Q9Y618 whole entry, further chain): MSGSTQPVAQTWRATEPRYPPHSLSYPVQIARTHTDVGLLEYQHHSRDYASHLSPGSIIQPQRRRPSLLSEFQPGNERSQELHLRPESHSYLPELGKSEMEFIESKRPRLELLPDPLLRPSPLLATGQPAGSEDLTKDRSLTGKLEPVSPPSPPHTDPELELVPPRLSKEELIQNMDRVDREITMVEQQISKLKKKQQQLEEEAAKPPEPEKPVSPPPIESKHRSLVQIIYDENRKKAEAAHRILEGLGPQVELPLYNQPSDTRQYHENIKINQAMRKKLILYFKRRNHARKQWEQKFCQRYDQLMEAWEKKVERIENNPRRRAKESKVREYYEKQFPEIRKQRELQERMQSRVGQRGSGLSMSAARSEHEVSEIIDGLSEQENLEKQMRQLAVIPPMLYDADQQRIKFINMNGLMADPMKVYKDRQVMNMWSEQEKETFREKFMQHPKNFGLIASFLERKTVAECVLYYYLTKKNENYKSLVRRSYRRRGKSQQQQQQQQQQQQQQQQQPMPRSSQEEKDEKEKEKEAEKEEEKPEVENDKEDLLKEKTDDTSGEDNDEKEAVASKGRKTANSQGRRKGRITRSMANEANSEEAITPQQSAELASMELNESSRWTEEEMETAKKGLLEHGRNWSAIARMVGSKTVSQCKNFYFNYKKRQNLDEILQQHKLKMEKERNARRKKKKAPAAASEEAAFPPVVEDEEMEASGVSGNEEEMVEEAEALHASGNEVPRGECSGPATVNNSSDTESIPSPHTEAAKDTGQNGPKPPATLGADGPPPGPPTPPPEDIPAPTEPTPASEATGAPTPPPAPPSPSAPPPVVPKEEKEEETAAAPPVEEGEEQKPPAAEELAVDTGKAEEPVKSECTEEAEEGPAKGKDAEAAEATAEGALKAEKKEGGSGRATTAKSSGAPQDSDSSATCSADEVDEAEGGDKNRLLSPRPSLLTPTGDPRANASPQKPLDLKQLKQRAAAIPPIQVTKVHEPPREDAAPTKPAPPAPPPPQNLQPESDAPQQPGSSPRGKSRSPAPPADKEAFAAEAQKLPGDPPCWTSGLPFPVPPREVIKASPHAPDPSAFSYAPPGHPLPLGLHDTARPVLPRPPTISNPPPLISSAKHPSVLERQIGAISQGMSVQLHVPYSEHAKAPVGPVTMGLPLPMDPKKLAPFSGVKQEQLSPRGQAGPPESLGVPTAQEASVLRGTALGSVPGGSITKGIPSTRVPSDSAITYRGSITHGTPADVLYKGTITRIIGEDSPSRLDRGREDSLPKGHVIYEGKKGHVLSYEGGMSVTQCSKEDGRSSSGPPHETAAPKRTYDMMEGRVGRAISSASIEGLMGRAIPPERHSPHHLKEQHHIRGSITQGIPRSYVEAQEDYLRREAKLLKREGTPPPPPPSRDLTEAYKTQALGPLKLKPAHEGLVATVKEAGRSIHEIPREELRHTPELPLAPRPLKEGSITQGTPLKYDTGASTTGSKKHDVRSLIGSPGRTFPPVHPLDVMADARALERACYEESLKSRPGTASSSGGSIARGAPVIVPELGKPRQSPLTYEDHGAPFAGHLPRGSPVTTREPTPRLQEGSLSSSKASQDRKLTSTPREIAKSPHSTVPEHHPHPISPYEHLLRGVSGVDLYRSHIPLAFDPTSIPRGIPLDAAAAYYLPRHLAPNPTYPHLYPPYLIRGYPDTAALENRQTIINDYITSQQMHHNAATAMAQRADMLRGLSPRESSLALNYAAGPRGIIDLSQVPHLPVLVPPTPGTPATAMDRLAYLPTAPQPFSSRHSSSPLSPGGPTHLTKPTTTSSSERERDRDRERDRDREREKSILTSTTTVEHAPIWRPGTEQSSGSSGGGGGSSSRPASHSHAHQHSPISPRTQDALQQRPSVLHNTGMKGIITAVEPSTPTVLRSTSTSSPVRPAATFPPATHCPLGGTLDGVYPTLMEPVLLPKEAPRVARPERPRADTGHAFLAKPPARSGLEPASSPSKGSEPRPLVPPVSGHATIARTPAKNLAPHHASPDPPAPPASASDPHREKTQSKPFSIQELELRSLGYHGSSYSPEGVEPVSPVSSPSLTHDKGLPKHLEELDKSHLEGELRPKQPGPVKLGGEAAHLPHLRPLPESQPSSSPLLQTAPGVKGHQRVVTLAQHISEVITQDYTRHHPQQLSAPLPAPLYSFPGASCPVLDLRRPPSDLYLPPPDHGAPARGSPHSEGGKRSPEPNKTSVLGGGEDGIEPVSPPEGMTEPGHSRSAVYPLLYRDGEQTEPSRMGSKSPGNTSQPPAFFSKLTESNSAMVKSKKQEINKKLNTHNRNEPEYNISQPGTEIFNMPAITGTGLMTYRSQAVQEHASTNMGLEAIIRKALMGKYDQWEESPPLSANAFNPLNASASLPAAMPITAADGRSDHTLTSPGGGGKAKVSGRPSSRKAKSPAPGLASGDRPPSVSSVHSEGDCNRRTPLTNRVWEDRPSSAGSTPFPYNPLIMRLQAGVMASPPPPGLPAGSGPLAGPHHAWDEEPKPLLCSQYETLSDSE

[6] = target: Histone deacetylase 1 (Homo sapiens, UniProt Q13547)
Histone deacetylase 1, sequence (Q13547 whole entry): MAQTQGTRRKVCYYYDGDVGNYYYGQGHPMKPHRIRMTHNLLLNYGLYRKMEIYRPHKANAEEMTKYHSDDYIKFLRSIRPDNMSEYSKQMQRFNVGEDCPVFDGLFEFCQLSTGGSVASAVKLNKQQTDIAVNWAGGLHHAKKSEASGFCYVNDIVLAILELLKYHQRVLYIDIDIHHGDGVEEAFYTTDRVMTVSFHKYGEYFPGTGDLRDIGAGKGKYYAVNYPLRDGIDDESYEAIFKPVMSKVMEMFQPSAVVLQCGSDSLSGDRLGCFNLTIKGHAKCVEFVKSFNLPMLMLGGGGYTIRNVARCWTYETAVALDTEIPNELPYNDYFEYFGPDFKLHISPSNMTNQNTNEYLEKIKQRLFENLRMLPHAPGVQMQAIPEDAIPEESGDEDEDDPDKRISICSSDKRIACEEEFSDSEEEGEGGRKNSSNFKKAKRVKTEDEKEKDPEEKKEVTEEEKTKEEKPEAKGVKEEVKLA
Description: Inhibition of human recombinant HDAC1 using RHKKAc as fluorogenic substrate incubated for 90 mins by fluorescence based analysis

[7] = tested on: HPBALL; assay: Antiproliferative activity against human HPBALL cells assessed as inhibition of cell growth incubated for 72 hrs by celltiter-glo assay; format: functional, cell-based
[8] = tested on: K562; assay: cells; format: functional, cell-based; conditions: Homo sapiens, K562, 72 h
[9] = tested on: HL-60; assay: cells; conditions: Homo sapiens, HL-60, 72 h
[10] = Ratio of drug concentration in human blood to plasma; format: ADME, cell-free
[11] = Tmax in Balb/c mouse at 50 mg/kg, po measured upto 6 hrs by LC-MS/MS analysis; format: ADME, organism-based; conditions: in vivo
[12] = Half life in mouse at 50 mg/kg, po by LC/MS/MS analysis; conditions: in vivo
[13] = AUClast in mouse at 50 mg/kg, po by LC/MS/MS analysis; conditions: in vivo
[14] = Metabolic stability in human liver microsomes assessed as half life measured upto 60 mins in presence of NADPH regenerating system LC-MS analysis
[15] = in vivo; conditions: Balb/c, mouse, po, 50 mg/kg
[16] = Half life in Balb/c mouse at 50 mg/kg, po measured upto 6 hrs by LC-MS/MS analysis; conditions: in vivo

Histone deacetylase 4, sequence (P56524 whole entry): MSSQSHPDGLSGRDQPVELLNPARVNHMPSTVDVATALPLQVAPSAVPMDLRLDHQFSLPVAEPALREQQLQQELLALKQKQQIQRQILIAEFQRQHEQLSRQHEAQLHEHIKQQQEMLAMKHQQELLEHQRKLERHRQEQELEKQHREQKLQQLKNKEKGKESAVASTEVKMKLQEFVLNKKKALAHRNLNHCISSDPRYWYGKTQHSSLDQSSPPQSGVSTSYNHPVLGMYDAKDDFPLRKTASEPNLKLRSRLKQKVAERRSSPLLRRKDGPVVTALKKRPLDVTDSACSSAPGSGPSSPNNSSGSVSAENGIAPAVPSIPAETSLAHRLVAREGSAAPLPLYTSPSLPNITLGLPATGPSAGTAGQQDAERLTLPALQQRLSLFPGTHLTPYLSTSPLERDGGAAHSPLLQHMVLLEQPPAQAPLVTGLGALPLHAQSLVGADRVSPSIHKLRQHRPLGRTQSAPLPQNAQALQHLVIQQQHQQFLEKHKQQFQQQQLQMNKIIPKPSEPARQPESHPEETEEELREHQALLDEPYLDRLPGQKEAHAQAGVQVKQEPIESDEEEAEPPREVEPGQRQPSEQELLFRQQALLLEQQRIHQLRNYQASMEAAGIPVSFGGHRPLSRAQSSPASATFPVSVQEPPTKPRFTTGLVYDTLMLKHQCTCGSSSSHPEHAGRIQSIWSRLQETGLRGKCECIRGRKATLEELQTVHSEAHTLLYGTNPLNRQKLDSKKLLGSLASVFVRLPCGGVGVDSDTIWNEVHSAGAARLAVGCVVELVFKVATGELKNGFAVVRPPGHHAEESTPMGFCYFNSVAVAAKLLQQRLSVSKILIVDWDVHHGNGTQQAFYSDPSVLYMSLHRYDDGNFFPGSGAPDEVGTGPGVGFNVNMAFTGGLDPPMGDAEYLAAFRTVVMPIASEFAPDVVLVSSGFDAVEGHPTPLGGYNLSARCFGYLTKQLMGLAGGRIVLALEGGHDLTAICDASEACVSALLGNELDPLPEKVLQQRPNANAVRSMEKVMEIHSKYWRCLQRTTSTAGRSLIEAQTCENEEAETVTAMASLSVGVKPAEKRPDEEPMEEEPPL

| IC50 [1] | IC50 [2] | IC50 [3] | Compound | further results |
| --- | --- | --- | --- | --- |
| > 100000 nM | 4860 nM | 108 nM | O=C(CCCCCONC(=O)c1nc(-c2ccc(C(F)(F)F)cc2)cs1)NO |  |
| > 100000 nM | 2160 nM | 26 nM | COc1ccccc1-c1csc(C(=O)NOCCCCCC(=O)NO)n1 |  |
| > 100000 nM | 6380 nM | 45 nM | O=C(CCCCCONC(=O)c1nc(-c2ccc(F)cc2)cs1)NO |  |
| > 100000 nM | 4800 nM | 64 nM | O=C(CCCCCONC(=O)c1nc(-c2ccc(N3CCCC3)cc2)cs1)NO | IC50 [4]: 36000 nM; IC50 [5]: 48 nM; IC50 [6]: 12 nM |
| > 100000 nM | 1290 nM | 51 nM | O=C(CCCCCONC(=O)c1nc(-c2ccccc2F)cs1)NO |  |
| > 100000 nM | 3680 nM | 30 nM | O=C(CCCCCONC(=O)c1nc(-c2cc3ccccc3o2)cs1)NO |  |
| > 100000 nM | 2320 nM | 47 nM | O=C(CCCCCONC(=O)c1nc(-c2cccc(F)c2)cs1)NO |  |
| > 100000 nM | 5200 nM | 26 nM | COc1cccc(-c2csc(C(=O)NOCCCCCC(=O)NO)n2)c1 |  |
| > 100000 nM | 7010 nM | 64 nM | Cc1ccc(-c2csc(C(=O)NOCCCCCC(=O)NO)n2)cc1 |  |
| > 100000 nM | 5410 nM | 49 nM | O=C(CCCCCONC(=O)c1nc(-c2ccsc2)cs1)NO |  |
| > 100000 nM | 5750 nM | 38 nM | COc1ccc(-c2csc(C(=O)NOCCCCCC(=O)NO)n2)cc1 | IC50 [4]: 26000 nM; IC50 [5]: 13 nM; IC50 [6]: 40 nM |
| > 100000 nM | 4010 nM | 75 nM | O=C(CCCCCONC(=O)c1nc(-c2ccccc2)cs1)NO |  |
| > 100000 nM | 2510 nM | 81 nM | O=C(CCCCCONC(=O)c1nc(-c2cccs2)cs1)NO |  |
|  |  |  | O=C(/C=C/c1cccc(S(=O)(=O)Nc2ccccc2)c1)NO [BELINOSTAT] | IC50 [7]: 269 nM; IC50 [8]: 218 nM; IC50 [9]: 158 nM |
|  |  |  | COc1ccccc1OCCNCC(O)COc1cccc2[nH]c3ccccc3c12 (configuration not stated) [CARVEDILOL] | blood plasma ratio [10]: 0.76 |
|  |  |  | O=C(CCCCCCNC(=O)c1cnc(N(c2ccccc2)c2ccccc2)nc1)NO [RICOLINOSTAT] | IC50 [7]: 2580 nM; IC50 [8]: 2930 nM; IC50 [9]: 2190 nM |
|  |  |  | CC(=O)Nc1ccc(C(=O)Nc2ccccc2N)cc1 [TACEDINALINE] | IC50 [7]: 4700 nM; IC50 [8]: 5330 nM; IC50 [9]: 1580 nM |
|  |  |  | O=C(CCCCCCC(=O)Nc1ccccc1)NO [VORINOSTAT] | Tmax [11]: 4.8 min; half-life [12]: 45 min; AUC(0-t) [13]: 619 ng·h/mL; IC50 [7]: 824 nM; half-life at 1 h [14]: 35.9 min; AUC(0-t) at 6 h [15]: 347 ng·h/mL; half-life at 6 h [16]: 48 min |
